# Earlier results in publication PMC10352257, “In vivo effects of the alpha-synuclein misfolding inhibitor minzasolmin supports clinical development in Parkinson’s disease” (NPJ Parkinson's Disease, 2023).
# Tested on: Line 61 transgenic mice
# Design: method as in PMID 28585223
# Settings: cited from earlier work
substance,measurement,value
CLR01,effect on gait deficits of Line 61 transgenic mice in round beam traversal test,improved
